Values of other authors, collected in patent publication EP0315648B1 (THE UPJOHN COMPANY, priority 1986, dated 1988).

Conditions: Hildebrand solubility coefficient of the solvent (scale of Vaughn)

| Compound | HSC |
| --- | --- |
| CCCCCCCC/C=C\CCCCCCCCO [oleyl alcohol] | 9.8 |
| CC(O)CO (centres unmarked) [propylene glycol] | 14 |
